The record followed here is patent US20250034139A1, “AMINE COMPOUNDS HAVING ANTI-INFLAMMATORY, ANTIFUNGAL, ANTIPARASITIC, AND ANTICANCER ACTIVITY” (PHARMA CINQ, LLC, priority 2013, published 2025).

≈ marks a conversion by molar mass, not a printed value. Structures can show the parent of a compound that is named as a salt.

The subject of test [1] is PC-3 prostate cancer cells. Description: Example T: sensitisation of PC-3 cells to doxorubicin, oxaliplatin, paclitaxel or vincristine, Wst1. The test is classed as cell-based, human. Particulars: PC-3 cells, 72 hours; for Doxorubicin 3.5 μM: percent cell survival / Oxaliplatin 100 μM: percent cell survival / Paclitaxel 50 μM: percent cell survival / Vincristine 100 nM: percent cell survival: chemotherapy agent alone normalized to 100%; for viability at 0.4 µM: compound 0.4 μM alone; for viability at 2.5 µM: compound 2.5 μM alone.

The subject of test [2] is Cryptococcus neoformans (serotype D). Description: Example K: Cryptococcus neoformans (serotype D) growth inhibition. Type of test: cell-based. Particulars: Cryptococcus deneoformans, OD of 48 hour reading, 37° C., tested 4 to 60 μM, XLfit; for IC50: read-out: IC50 (concentration for 50% of inhibition); for MIC: read-out: MIC (concentration for maximum-99% of inhibition).

The subject of test [3] is Candida albicans strain 3153. Description: Example H: Candida albicans growth inhibition (OD 600 nm). The test is classed as cell-based. Particulars: for MIC: Candida albicans, 3153, 24 hrs at 30° C., YPD, XLfit, read-out: MIC (uM) (99% of inhibition of fungal growth); for IC50: Candida albicans, 3153, read-out: IC50 (uM) (50% inhibition of fungal growth), 24 hrs at 30° C., YPD, XLfit. In short, it runs like this:
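Growth inhibition computed as % versus DMSO control from OD600 after ~24 h at 30° C. Inoculum: washed overnight YPD culture of strain 3153 at 3.5×10^4 CFU/ml in YPD; final compound concentrations 0, 5, 10, 16, 22, 30, 40 μM, duplicate wells.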

Test [4] has as its system S. cerevisiae. Description: Example I: Saccharomyces cerevisiae growth inhibition (OD 600 nm). Type of test: cell-based. The settings on record: Saccharomyces cerevisiae, 18 hour incubation at 30° C., OD 600 nm, XLfit; for IC50: read-out: IC50, uM (50% inhibition of fungal growth); for MIC: read-out: MIC, uM (99% of inhibition of fungal growth).
[5] abbreviates: Homo sapiens, Wst1, vehicle = 100, read-out: No Chemo: percent cell survival.
Where [6] appears, read: compound 0.4 μM + doxorubicin 3.5 μM.
Setting [7] is: compound 0.4 μM + oxaliplatin 100 μM.
[8] abbreviates: compound 0.4 μM + paclitaxel 50 μM.
[9] abbreviates: compound 0.4 μM + vincristine 100 nM.
Setting [10] is: compound 2.5 μM + doxorubicin 3.5 μM.
Where [11] appears, read: compound 2.5 μM + oxaliplatin 100 μM.
[12] abbreviates: compound 2.5 μM + paclitaxel 50 μM.
[13] abbreviates: compound 2.5 μM + vincristine 100 nM.

As for `CCCCCCOc1ccc(CNc2ccnc3ccccc23)cc1` [AA, N-[4-(Hexyloxy)benzyl]quinolin-4-amine], in test [1] (Homo sapiens, compound 1.5 μM alone, Wst1, vehicle = 100, read-out: No Chemo: percent cell survival), the viability at 1.5 µM is 82.6%. In addition, the “Doxorubicin 3.5 μM: percent cell survival” value in test [1] (compound 1.5 μM + doxorubicin 3.5 μM) turned out to be 38.6%. Further, the “Oxaliplatin 100 μM: percent cell survival” value in test [1] (compound 1.5 μM + oxaliplatin 100 μM) worked out at 31%. In addition, the “Paclitaxel 50 μM: percent cell survival” value in test [1] (compound 1.5 μM + paclitaxel 50 μM) amounted to 22.2%. Besides, the “Vincristine 100 nM: percent cell survival” value in test [1] (compound 1.5 μM + vincristine 100 nM) is on record as 43%. Besides, in test [2], the IC50 turned out to be 3.34 µM and the MIC is 40.5 µM (≈ 13.6 µg/mL). Further, in test [3], the MIC amounted to 27.3 µM (≈ 9.13 µg/mL) and the IC50 came to 11 µM.
Consider `COc1ccc(OCCCCCCCCNc2ncnc3ccccc23)cc1` [AE, N-[8-(4-Methoxyphenoxy)octyl]quinazolin-4-amine], for which, in test [2], the IC50 amounted to 0.53 µM and the MIC was 6.99 µM (≈ 2.65 µg/mL). Also, the IC50 in test [3] amounted to 7.82 µM.
As for `c1ccc(Oc2cccc(CNc3ccnc4ccccc34)c2)cc1` [AF, N-(3-Phenoxybenzyl)quinolin-4-amine], in test [1] (setting [5]), the viability at 0.4 µM worked out at 19.1%. Further, the “Doxorubicin 3.5 μM: percent cell survival” value in test [1] (setting [6]) was found to be 35%. Also, the “Oxaliplatin 100 μM: percent cell survival” value in test [1] (setting [7]) worked out at 32.4%. The “Paclitaxel 50 μM: percent cell survival” value in test [1] (setting [8]) was determined as 25.2%. Besides, the “Vincristine 100 nM: percent cell survival” value in test [1] (setting [9]) stood at 22.6%. Also, the IC50 worked out at 5.18 µM in test [2] and 45.5 µM in test [3]. For the same molecule, the MIC is 55.9 µM (≈ 18.2 µg/mL) in test [2] and 74.2 µM (≈ 24.2 µg/mL) in test [3].
As for `CCCCCCOc1cccc(CNc2ncnc3ccccc23)c1` [AK, N-[3-(Hexyloxy)benzyl]quinazolin-4-amine], the figures for the IC50 in test [4], in test [2] and in test [3] were 23.5 µM, 0.85 µM and 10.7 µM, respectively. Also, the MIC in test [2] worked out at 24.6 µM (≈ 8.26 µg/mL).
`CCCCOCCCCCCCCCCNc1ccnc2ccccc12` [AM, N-(10-Butoxydecyl)quinolin-4-amine]: the IC50 was found to be 13.4 µM in test [4], 3.32 µM in test [2] and 6.52 µM in test [3]. For the same molecule, the MIC amounted to 18.9 µM (≈ 6.73 µg/mL) in test [4], 13.3 µM (≈ 4.75 µg/mL) in test [2] and 16.2 µM (≈ 5.77 µg/mL) in test [3]. The viability at 0.4 µM in test [1] (setting [5]) amounted to 58.5%. Moreover, the “Doxorubicin 3.5 μM: percent cell survival” value in test [1] (setting [6]) was determined as 24.7%. Besides, the “Oxaliplatin 100 μM: percent cell survival” value in test [1] (setting [7]) is given as 25.4%. Moreover, in test [1] (setting [8]), the “Paclitaxel 50 μM: percent cell survival” value was determined as 54.8%. The “Vincristine 100 nM: percent cell survival” value in test [1] (setting [9]) stood at 26%.
Regarding `CCCCCCOCCCCCCCCn1cnc2cnccc21` [AS, 1-[8-(Hexyloxy)octyl]-1H-imidazo[4,5-c]pyridine], the IC50 in test [4] was 38.5 µM; in test [2], 1.46 µM; in test [3], 15.3 µM. For the same molecule, the MIC in test [4] was 48.9 µM (≈ 16.2 µg/mL); in test [2], 26.8 µM (≈ 8.89 µg/mL); in test [3] it was 37.8 µM (≈ 12.5 µg/mL). The viability at 2.5 µM in test [1] (setting [5]) turned out to be 31.1%. For the same molecule, in test [1] (setting [10]), the “Doxorubicin 3.5 μM: percent cell survival” value stood at 51.1%. Moreover, the “Oxaliplatin 100 μM: percent cell survival” value in test [1] (setting [11]) is given as 55.5%. In test [1] (setting [12]), the “Paclitaxel 50 μM: percent cell survival” value amounted to 36.8%. Also, the “Vincristine 100 nM: percent cell survival” value in test [1] (setting [13]) came out at 30.8%.
With `CCCCOCCCCCCCCCCn1cnc2cnccc21` [AT, 1-(10-Butoxydecyl)-1H-imidazo[4,5-c]pyridine], the viability at 0.4 µM in test [1] (setting [5]) was determined as 34.6%. In test [1] (setting [6]), the “Doxorubicin 3.5 μM: percent cell survival” value came to 65.4%. Further, the “Oxaliplatin 100 μM: percent cell survival” value in test [1] (setting [7]) was determined as 76.8%. Further, the “Paclitaxel 50 μM: percent cell survival” value in test [1] (setting [8]) came to 57.4%. In addition, in test [1] (setting [9]), the “Vincristine 100 nM: percent cell survival” value is given as 32.9%. Moreover, in test [2], the IC50 is 1.29 µM and the MIC was 41.8 µM (≈ 13.9 µg/mL). Moreover, in test [3], the MIC came out at 51.2 µM (≈ 17 µg/mL) and the IC50 was 14.5 µM.
With `CCCCCCOCCCCCCCCNc1ccncn1` [AU, N-[8-(Hexyloxy)octyl]pyrimidin-4-amine], the IC50 in test [4] was 18 µM; in test [2], 1.63 µM; in test [3], 16.3 µM. In addition, the MIC is 24.3 µM (≈ 7.46 µg/mL) in test [4], 14.4 µM (≈ 4.42 µg/mL) in test [2] and 30.9 µM (≈ 9.52 µg/mL) in test [3]. Besides, in test [1] (setting [5]), the viability at 2.5 µM was found to be 32.4%. Also, the “Doxorubicin 3.5 μM: percent cell survival” value in test [1] (setting [10]) was determined as 25.7%. For the same molecule, the “Oxaliplatin 100 μM: percent cell survival” value in test [1] (setting [11]) was 41.1%. In addition, the “Paclitaxel 50 μM: percent cell survival” value in test [1] (setting [12]) was 34.2%. Besides, the “Vincristine 100 nM: percent cell survival” value in test [1] (setting [13]) came to 32%.
Regarding `CCCCCCOCCCCCCCCNc1cc(C)nc2ccccc12` [AV, N-[8-(Hexyloxy)octyl]-2-methylquinolin-4-amine], the figures for the IC50 in test [4], in test [2] and in test [3] were 19.7 µM, 5.12 µM and 13.4 µM, respectively. The MIC in test [4] was found to be 19.8 µM (≈ 7.32 µg/mL); in test [2], 22.9 µM (≈ 8.47 µg/mL); in test [3] it was 19.8 µM (≈ 7.34 µg/mL). Moreover, the viability at 2.5 µM in test [1] (setting [5]) amounted to 38.2%. Further, the “Doxorubicin 3.5 μM: percent cell survival” value in test [1] (setting [10]) is on record as 62.6%. Moreover, the “Oxaliplatin 100 μM: percent cell survival” value in test [1] (setting [11]) worked out at 59.3%. Moreover, the “Paclitaxel 50 μM: percent cell survival” value in test [1] (setting [12]) amounted to 34.4%. The “Vincristine 100 nM: percent cell survival” value in test [1] (setting [13]) amounted to 37.2%.
Take `CCCCCCOCCCCCCCCNc1ccnc2cc(Cl)ccc12` [AW, 7-Chloro-N-[8-(hexyloxy)octyl]quinolin-4-amine]: the IC50 in test [4] was 9.73 µM; in test [2] it was 0.9 µM; in test [3], 13.3 µM. The MIC in test [4] came to 10.2 µM (≈ 4 µg/mL); in test [2], 8.73 µM (≈ 3.41 µg/mL); in test [3] it was 24.8 µM (≈ 9.7 µg/mL). The viability at 0.4 µM in test [1] (setting [5]) worked out at 38.2%. For the same molecule, the “Doxorubicin 3.5 μM: percent cell survival” value in test [1] (setting [6]) came to 59.5%. The “Oxaliplatin 100 μM: percent cell survival” value in test [1] (setting [7]) is 70%. In test [1] (setting [8]), the “Paclitaxel 50 μM: percent cell survival” value is 51.3%. In addition, in test [1] (setting [9]), the “Vincristine 100 nM: percent cell survival” value is reported as 33.6%.
Regarding `Cc1ccc(OCCCCCCCCNc2ccnc3ccccc23)cc1` [BF, N-[8-(p-Tolyloxy)octyl]quinolin-4-amine], in test [4], the IC50 worked out at 20.8 µM and the MIC is 32 µM (≈ 11.6 µg/mL). Moreover, the viability at 0.4 µM in test [1] (setting [5]) is 92.8%. Besides, in test [1] (setting [6]), the “Doxorubicin 3.5 μM: percent cell survival” value worked out at 40.9%. Moreover, the “Oxaliplatin 100 μM: percent cell survival” value in test [1] (setting [7]) is 37.2%. Also, the “Paclitaxel 50 μM: percent cell survival” value in test [1] (setting [8]) came out at 57.1%. Besides, the “Vincristine 100 nM: percent cell survival” value in test [1] (setting [9]) worked out at 74.1%. In test [3], the MIC was 26.9 µM (≈ 9.77 µg/mL) and the IC50 was 14.2 µM.
As for `c1ccc(Oc2cccc(CNc3ncnc4ccccc34)c2)cc1` [BM, N-(3-Phenoxybenzyl)quinazolin-4-amine], the IC50 in test [4] was 30.6 µM; in test [2], 0.72 µM; in test [3], 20.2 µM. The MIC in test [4] was determined as 50.5 µM (≈ 16.5 µg/mL); in test [2], 22.6 µM (≈ 7.38 µg/mL); in test [3] it was 44.5 µM (≈ 14.6 µg/mL).
On to `CCCCCCOCCCCCCCC[n+]1ccc(N)cc1` [BO, 4-Amino-1-[8-(hexyloxy)octyl]pyridinium salts], for which the viability at 0.4 µM in test [1] (setting [5]) worked out at 13.4%. In addition, the “Doxorubicin 3.5 μM: percent cell survival” value in test [1] (setting [6]) worked out at 82.4%. Moreover, in test [1] (setting [7]), the “Oxaliplatin 100 μM: percent cell survival” value turned out to be 28.4%. Further, the “Paclitaxel 50 μM: percent cell survival” value in test [1] (setting [8]) is listed as 28.2%. Further, in test [1] (setting [9]), the “Vincristine 100 nM: percent cell survival” value turned out to be 18.4%. Besides, in test [2], the IC50 turned out to be 2 µM and the MIC is 13.4 µM. Also, in test [3], the MIC came to 42.5 µM and the IC50 is 19 µM.
On to `CCCCCCCCCCNc1ncnc2ccccc12` [Compound AH, N-(Decyl)quinazolin-4-amine], for which the IC50 came to 0.76 µM in test [2] and 5.24 µM in test [3]. Further, the MIC in test [2] is 9.54 µM (≈ 2.72 µg/mL); in test [3] it was 15.4 µM (≈ 4.4 µg/mL).
